Results on 35 compounds are retold here after patent US8575153B2 (Kowa Company, Ltd., priority 2008, dated 2013).

Structures can show the parent of a compound that is named as a salt.

The target of the first test is Recombinant human JAK3 enzyme (JAK3 kinase region; Ala795-Ser1124) (Homo sapiens, UniProt P52333). The test is described as follows: JAK3 Kinase Assay (Kinase-Glo luminescent, ATP consumption). The settings on record: read-out: Inhibition rate (%) of JAK3 kinase activity. For orientation: In Kinase-Glo more light means more ATP remaining.
Chain of Recombinant human JAK3 enzyme (JAK3 kinase region; Ala795-Ser1124) (P52333 795-1124): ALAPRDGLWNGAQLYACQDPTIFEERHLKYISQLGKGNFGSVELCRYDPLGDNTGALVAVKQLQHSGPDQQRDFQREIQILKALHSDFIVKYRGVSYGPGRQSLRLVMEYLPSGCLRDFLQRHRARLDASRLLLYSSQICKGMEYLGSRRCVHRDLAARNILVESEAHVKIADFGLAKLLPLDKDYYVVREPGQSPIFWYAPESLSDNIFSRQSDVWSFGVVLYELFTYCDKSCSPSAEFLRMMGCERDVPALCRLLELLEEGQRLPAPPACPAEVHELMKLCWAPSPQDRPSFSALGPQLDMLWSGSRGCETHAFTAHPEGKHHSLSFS
For the compound `CC(C)S(=O)(=O)Nc1ccc(Nc2cc(NCc3cc(F)cc(F)c3)c(C(N)=O)cn2)cc1` [Example 302, 4-[(3,5-difluorobenzyl)amino]-6-({4-[(propan-2-ylsulfonyl)amino]phenyl}amino)pyridine-3-carboxyamide], the inhibition at 0.1 µM was found to be 90%. The same measure, in the same setting: for `CCN(CC)C(=O)N1CCN(c2ccc(Nc3cc(NCc4ccccc4)c(C(N)=O)cn3)cc2)CC1` [Example 282, 4-(benzylamino)-6-({4-[(4-diethylcarbamoyl)piperazin-1-yl]phenyl}amino)pyridine-3-carboxyamide] the value was 89%; for `C[C@H]1COCCN1c1ccc(Nc2cc(NCc3ccccc3)c(C(N)=O)cn2)cc1` [Example 134, 4-(benzylamino)-6-({4-[(3S)-3-methylmorpholino]phenyl}amino)pyridine-3-carboxyamide], 83%. For `C[C@@H]1CN(c2ccc(Nc3cc(NCc4ccccc4)c(C(N)=O)cn3)cc2)C[C@H](C)N1` [Example 136, 4-(benzylamino)-6-({4-[(3R,5S)-3,5-dimethylpiperazin-1-yl]phenyl}amino)pyridine-3-carboxyamide], the inhibition at 0.1 µM was determined as 80%. For the compound `CCN(CC)CCN1CCN(c2ccc(Nc3cc(NCc4cccc(F)c4F)c(C(N)=O)cn3)cc2)CC1` [Example 237, 6-[(4-{4-[2-(diethylamino)ethyl]piperazin-1-yl}phenyl)amino]-4-[(2,3-difluorobenzyl)amino]pyridine-3-carboxyamide], the inhibition at 0.1 µM stood at 78%. On the same count and under the same terms, for `NC(=O)c1cnc(Nc2ccc(NC(=O)[C@@H]3CCCN3)cc2)cc1NCc1cc(F)cc(F)c1` [Example 317, 4-[(3,5-difluorobenzyl)amino]-6-{[4-(L-prolylamino)phenyl]amino}pyridine-3-carboxyamide hydrochloride] the value was 62%; for `CS(=O)(=O)N1CCN(c2ccc(Nc3cc(NCc4cc(F)cc(F)c4)c(C(N)=O)cn3)cc2)CC1` [Example 293, 4-[(3,5-difluorobenzyl)amino]-6-({4-[4-(methylsulfonyl)piperazin-1-yl]phenyl}amino)pyridine-3-carboxyamide], 61%. Still for that read-out and setting: for `COCCNS(=O)(=O)c1ccc(Nc2cc(NCc3cc(F)cc(F)c3)c(C(N)=O)cn2)cc1` [Example 330, 4-[(3,5-difluorobenzyl)amino]-6-({4-[(2-methoxyethyl)sulfamoyl]phenyl}amino)pyridine-3-carboxyamide] the value was 59%; for `COc1ccc(F)cc1CNc1cc(Nc2ccc(N3CCOCC3)cc2)ncc1C(N)=O` [Example 99, 4-[(5-fluoro-2-methoxybenzyl)amino]-6-[(4-morpholinophenyl)amino]pyridine-3-carboxyamide], 80%; for `NC(=O)c1cnc(Nc2ccc(N3CCC(O)CC3)cc2)cc1NCc1cccc(F)c1F` [Example 187, 4-[(2,3-difluorobenzyl)amino]-6-{[4-(4-hydroxypiperidino)phenyl]amino}pyridine-3-carboxyamide], 85%.

On to `CCN(CC)CCN1CCN(c2cccc(Nc3cc(NCc4cc(F)cc(F)c4)c(C(N)=O)cn3)c2)CC1` [Example 239, 6-[(3-{4-[2-(diethylamino)ethyl]piperazin-1-yl}phenyl)amino]-4-[(3,5-difluorobenzyl)amino]pyridine-3-carboxyamide], for which the inhibition at 0.1 µM came to 57%. On the same count and under the same terms, for `NC(=O)c1cnc(Nc2ccc(N3CCNCC3)cc2)cc1NCc1cccc([N+](=O)[O-])c1` [Example 224, 4-[(3-nitrobenzyl)amino]-6-{[4-(piperazin-1-yl)phenyl]amino}pyridine-3-carboxyamide] the value was 68%; for `CCN(CC)CC(=O)N1CCC(c2ccc(Nc3cc(NCc4ccccc4)c(C(N)=O)cn3)cc2)CC1` [Example 277, 4-(benzylamino)-6-({4-[1-(N,N-diethylglycyl)piperidin-4-yl]phenyl}amino)pyridine-3-carboxyamide], 70%. As to `NC(=O)c1cnc(Nc2ccc(N3CCOCC3)cc2)cc1NCC1CC1` [Example 362, 4-[(cyclopropylmethyl)amino]-6-[(4-morpholinophenyl)amino]pyridine-3-carboxyamide], the inhibition at 1 µM amounted to 40%.

In the case of `CS(=O)(=O)N1CCN(c2ccc(Nc3cc(NCc4cccc(F)c4F)c(C(N)=O)cn3)cc2)CC1` [Example 292, 4-[(2,3-difluorobenzyl)amino]-6-({4-[4-(methylsulfonyl)piperazin-1-yl]phenyl}amino)pyridine-3-carboxyamide], the inhibition at 0.1 µM is 84%.

With `NC(=O)c1cnc(Nc2ccc(N3CCOCC3)cc2)cc1NCc1cccnc1` [Example 353, 6-[(4-morpholinophenyl)amino]-4-[(pyridin-3-ylmethyl)amino}pyridine-3-carboxyamide], the inhibition at 1 µM was determined as 65%.

Regarding `CS(=O)(=O)N1CCN(c2ccc(Nc3cc(NC4CCCCC4)c(C(N)=O)cn3)cc2)CC1` [Example 346, 4-cyclohexylamino-6-({4-[4-(methylsulfonyl)piperazin-1-yl]phenyl}amino)pyridine-3-carboxyamide], the inhibition at 1 µM was found to be 72%. For the compound `NC(=O)c1cnc(Nc2ccc(N3CCNCC3)cc2)cc1NCc1c(F)cccc1F` [Example 223, 4-[(2,6-difluorobenzyl)amino]-6-{[4-(piperazin-1-yl)phenyl]amino}pyridine-3-carboxyamide], the inhibition at 0.1 µM is 81%. As for `NC(=O)c1cnc(Nc2ccc(N3CCOCC3)cc2)cc1NCc1ccccc1Cl` [Example 80, 4-[(2-chlorobenzyl)amino]-6-[(4-morpholinophenyl)amino]pyridine-3-carboxyamide], the inhibition at 0.1 µM came to 79%. On the same count and under the same terms, for `C[C@@H]1CN(c2cccc(Nc3cc(NCc4cc(F)cc(F)c4)c(C(N)=O)cn3)c2)C[C@H](C)N1` [Example 144, 4-[(3,5-difluorobenzyl)amino]-6-({3-[(3R,5S)-3,5-dimethylpiperazin-1-yl]phenyl}amino) pyridine-3-carboxyamide] the value was 61%. For the compound `CCN(CC)CCN1CCN(c2ccc(Nc3cc(NCc4cc(F)cc(F)c4)c(C(N)=O)cn3)cc2)CC1` [Example 238, 6-[(4-{4-[2-(diethylamino)ethyl]piperazin-1-yl}phenyl)amino]-4-[(3,5-difluorobenzyl)amino]pyridine-3-carboxyamide], the inhibition at 0.1 µM stood at 100%. Same read-out and setting: for `CCN(CC)CCS(=O)(=O)Nc1ccc(Nc2cc(NCc3cc(F)cc(F)c3)c(C(N)=O)cn2)cc1` [Example 304, 6-{[4-({[2-(diethylamino)ethyl]sulfonyl}amino)phenyl]amino}-4-[(3,5-difluorobenzyl)amino]pyridine-3-carboxyamide] the value was 78%. Consider `N#CCC(=O)N1CCN(c2ccc(Nc3cc(NCc4cc(F)ccc4F)c(C(N)=O)cn3)cc2)CC1` [Example 265, 6-({4-[4-(cyanoacetyl)piperazin-1-yl]phenyl}amino)-4-[(2,5-difluorobenzyl)amino]pyridine-3-carboxyamide], for which the inhibition at 0.1 µM was determined as 74%. Consider `NC(=O)c1cnc(Nc2ccc(N3CCNCC3)cc2)cc1NCc1ccccc1` [Example 219], for which the inhibition at 0.1 µM came out at 65%. Regarding `NC(=O)c1cnc(Nc2ccc(N3CCCN(CCO)CC3)cc2)cc1NCc1ccccc1` [Example 245, 4-(benzylamino)-6-({4-[4-(2-hydroxyethyl)-1,4-diazepan-1-yl]phenyl}amino)pyridine-3-carboxyamide], the inhibition at 0.1 µM is 62%. As to `NC(=O)c1cnc(Nc2ccc(N3CCOCC3)nc2)cc1NCc1ccccc1` [Example 373, 4-benzylamino-6-[(6-morpholinopyridin-3-yl)amino]pyridine-3-carboxyamide], the inhibition at 1 µM came to 81%. On to `NC(=O)c1cnc(Nc2ccc(C(=O)O)cc2)cc1NCc1cc(F)cc(F)c1` [Example 332, 6-[(4-carboxyphenyl)amino]-4-[(3,5-difluorobenzyl)amino]pyridine-3-carboxyamide], for which the inhibition at 0.1 µM stood at 69%. Take `COCCNc1ccc(Nc2cc(NCc3cc(F)cc(F)c3)c(C(N)=O)cn2)cc1` [Example 233, 4-[(3,5-difluorobenzyl)amino]-6-({4-[(2-methoxyethyl)amino]phenyl}amino)pyridine-3-carboxyamide]: the inhibition at 0.1 µM is 74%. For the compound `N#Cc1ccc2ncn(-c3cc(NCc4cc(F)cc(F)c4)c(C(N)=O)cn3)c2c1` [Example 366, 6-(6-cyano-1H-benzimidazol-1-yl)-4-[(3,5-difluorobenzyl)amino]pyridine-3-carboxyamide], the inhibition at 1 µM was 9%. On the same count and under the same terms, for `NC(=O)c1cnc(Nc2ccc(N3CCOCC3)cc2)cc1NCC1CCCCC1` [Example 361, 4-[(cyclohexylmethyl)amino]-6-[(4-morpholinophenyl)amino]pyridine-3-carboxyamide] the value was 83%. For the compound `Cc1ccccc1CNc1cc(Nc2ccc(N3CCC(O)CC3)cc2)ncc1C(N)=O` [Example 185, 4-[(2-methylbenzyl)amino]-6-{[4-(4-hydroxypiperidino)phenyl]amino}pyridine-3-carboxyamide], the inhibition at 0.1 µM was 87%. Turning to `CN1CCCC1CNc1cc(Nc2ccc(N3CCOCC3)cc2)ncc1C(N)=O` (centres unmarked) [Example 359, 4-{[(1-methylpyrrolidin-2-yl)methyl]amino}-6-[(4-morpholinophenyl)amino]pyridine-3-carboxyamide], the inhibition at 1 µM turned out to be 61%.

Turning to `NC(=O)c1cnc(Nc2ccc(NC(=O)[C@@H]3CCCN3)cc2)cc1NCc1ccccc1` [Example 316, 4-(benzylamino)-6-({4-(L-prolylamino)phenyl]amino}pyridine-3-carboxyamide hydrochloride], the inhibition at 0.1 µM was 61%.

Staying with this test, now noted: test compound at 0.1 μM.
Turning to `CC(C)S(=O)(=O)N1CCN(c2cccc(Nc3cc(NCc4cc(F)cc(F)c4)c(C(N)=O)cn3)c2)CC1` [Example 174, 4-[(3,5-difluorobenzyl)amino]-6-({3-[4-(propan-2-ylsulfonyl)piperazin-1-yl]phenyl}amino) pyridine-3-carboxyamide], the “Inhibition rate (%) of JAK3 kinase activity” value was 58%. On the same count and under the same terms, for `CS(=O)(=O)NCCCc1ccc(Nc2cc(NCc3cc(F)cc(F)c3)c(C(N)=O)cn2)cc1` [Example 202] the value was 88%.

Broadly, the inhibition is the drop in the measured response relative to a control, in per cent.
